“And” between values parts separate entries of the source, which are not always exact repeats. Identical values can stand only once.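 Results reflect a 48-hour exposure of cells in 96-well plates to compound at five concentrations. GI50: concentration for 50% inhibition of growth. TGI: total growth inhibition.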

For one assay, the system named is MDA-MB-231 breast. Description: NCI-60 cell line screen, 48 h.
`O=C(NC(=O)c1c(F)cccc1F)Nc1cccc(Oc2ncc(Cl)cn2)c1`: the TGI was above 100 µM.

Another assay has as its system M14 melanoma. Description: NCI-60 cell line screen, 48 h.
Turning to `Cc1ccc(S(=O)(=O)N=Nc2c(O)[nH]c3cc(O)c(C(=O)O)cc23)cc1`, the TGI was above 100 µM.
With `O=C(O)c1ccc(CN2CCC(CN[C@@H]3C[C@H]3c3ccccc3)CC2)cc1`, the GI50 is above 100 µM and the TGI is above 100 µM.
For `O=C1C=CC(=O)C2C1C1(Cl)C(Cl)=C(Cl)C2(Cl)C1(Cl)Cl` (centres undefined), the GI50 is 3.35 µM and the TGI was found to be 13.3 µM.
For the compound `C=CC(=O)N1CCC(Oc2cc3c(Nc4ccc(Cl)c(Cl)c4F)ncnc3cc2OC)CC1`, the GI50 is 4 µM and 3.1 µM; the TGI was 20.2 µM and > 10 µM.
For `Cc1cc(Cl)ccc1OCC(=O)Nc1nc2c(Cl)cccc2s1`, the GI50 is above 100 µM and the TGI was above 100 µM.
`CNC(=O)OCc1c(COC(=O)NC)c(-c2ccc(-c3ccccc3)cc2)n(C)c1C`: the TGI is 6.84 µM.
As for `COc1cccc2c1C(=N)c1c(O)c3c(c(O)c1C2=O)C[C@@](O)(C(C)=O)C[C@@H]3O[C@H]1C[C@H](N)[C@H](O)[C@H](C)O1`, the GI50 is 0.496 µM and the TGI worked out at 4.78 µM.
The like results for `Cc1cn(-c2cc(NC(=O)c3cccc(C#Cc4cccc5[nH]nc(N)c45)c3)cc(C(F)(F)F)c2)cn1` were, in that order, 2.48 µM and 17.4 µM.
Regarding `CN(C)CCC(=O)N1C/C(=C\c2ccc(Cl)c(Cl)c2)C(=O)/C(=C/c2ccc(Cl)c(Cl)c2)C1`, the TGI was 0.979 µM.
Still for that read-out and setting: for `CN(C)Cc1cc(C(F)(F)F)ccc1C(O)(c1ccccc1)c1ccccc1` the value was 25.3 µM.
In turn, `O=C(NC(=O)c1c(F)cccc1F)Nc1cccc(Oc2ncc(Cl)cn2)c1` gave a TGI above 100 µM.

The subject of another assay is MCF7 breast. Description: NCI-60 cell line screen, 48 h.
With `Cc1ccc(S(=O)(=O)N=Nc2c(O)[nH]c3cc(O)c(C(=O)O)cc23)cc1`, the TGI was above 100 µM.
Consider `O=C(O)c1ccc(CN2CCC(CN[C@@H]3C[C@H]3c3ccccc3)CC2)cc1`, for which the GI50 is above 100 µM and the TGI was above 100 µM.
As to `O=C1C=CC(=O)C2C1C1(Cl)C(Cl)=C(Cl)C2(Cl)C1(Cl)Cl` (centres undefined), the GI50 is 8.55 µM and the TGI is 31.1 µM.
In the case of `C=CC(=O)N1CCC(Oc2cc3c(Nc4ccc(Cl)c(Cl)c4F)ncnc3cc2OC)CC1`, the GI50 is 2.05 µM and 1.42 µM; the TGI is 21.7 µM and > 10 µM.
With `Cc1cc(Cl)ccc1OCC(=O)Nc1nc2c(Cl)cccc2s1`, the GI50 was 11.2 µM and the TGI was found to be 24 µM.
For `CNC(=O)OCc1c(COC(=O)NC)c(-c2ccc(-c3ccccc3)cc2)n(C)c1C`, the TGI is 14.5 µM.
Consider `COc1cccc2c1C(=N)c1c(O)c3c(c(O)c1C2=O)C[C@@](O)(C(C)=O)C[C@@H]3O[C@H]1C[C@H](N)[C@H](O)[C@H](C)O1`, for which the GI50 was 0.0379 µM and the TGI was 5.2 µM.
Taken in the same sequence, the figures for `Cc1cn(-c2cc(NC(=O)c3cccc(C#Cc4cccc5[nH]nc(N)c45)c3)cc(C(F)(F)F)c2)cn1` were 3.6 µM and above 100 µM.
In the case of `CN(C)CCC(=O)N1C/C(=C\c2ccc(Cl)c(Cl)c2)C(=O)/C(=C/c2ccc(Cl)c(Cl)c2)C1`, the TGI was determined as 0.701 µM.
In turn, `CN(C)Cc1cc(C(F)(F)F)ccc1C(O)(c1ccccc1)c1ccccc1` gave a TGI of 27.4 µM.
The same measure, in the same setting: for `O=C(NC(=O)c1c(F)cccc1F)Nc1cccc(Oc2ncc(Cl)cn2)c1` the value was above 100 µM.

In a further assay the test system is OVCAR-4 ovarian. Description: NCI-60 cell line screen, 48 h.
Compound `Cc1ccc(S(=O)(=O)N=Nc2c(O)[nH]c3cc(O)c(C(=O)O)cc23)cc1` showed a TGI above 100 µM.
Regarding `O=C(O)c1ccc(CN2CCC(CN[C@@H]3C[C@H]3c3ccccc3)CC2)cc1`, the GI50 is above 100 µM and the TGI was above 100 µM.
Regarding `O=C1C=CC(=O)C2C1C1(Cl)C(Cl)=C(Cl)C2(Cl)C1(Cl)Cl` (centres undefined), the GI50 is 7.38 µM and the TGI is above 100 µM.
Turning to `C=CC(=O)N1CCC(Oc2cc3c(Nc4ccc(Cl)c(Cl)c4F)ncnc3cc2OC)CC1`, the GI50 is 2.65 µM and 2.56 µM; the TGI was 31.5 µM and > 10 µM.
For the compound `Cc1cc(Cl)ccc1OCC(=O)Nc1nc2c(Cl)cccc2s1`, the GI50 is 46.7 µM and the TGI is above 100 µM.
`CNC(=O)OCc1c(COC(=O)NC)c(-c2ccc(-c3ccccc3)cc2)n(C)c1C`: the TGI came out at 10.9 µM.
As for `COc1cccc2c1C(=N)c1c(O)c3c(c(O)c1C2=O)C[C@@](O)(C(C)=O)C[C@@H]3O[C@H]1C[C@H](N)[C@H](O)[C@H](C)O1`, the TGI came out at 7.68 µM.
As for `Cc1cn(-c2cc(NC(=O)c3cccc(C#Cc4cccc5[nH]nc(N)c45)c3)cc(C(F)(F)F)c2)cn1`, the GI50 was 2.93 µM and the TGI turned out to be 21.2 µM.
In turn, `CN(C)CCC(=O)N1C/C(=C\c2ccc(Cl)c(Cl)c2)C(=O)/C(=C/c2ccc(Cl)c(Cl)c2)C1` yielded a TGI of 0.777 µM.
The same measure, in the same setting: for `CN(C)Cc1cc(C(F)(F)F)ccc1C(O)(c1ccccc1)c1ccccc1` the value was 37.5 µM.
Same read-out and setting: the result for `O=C(NC(=O)c1c(F)cccc1F)Nc1cccc(Oc2ncc(Cl)cn2)c1` reads above 100 µM.

The subject of the next assay is SK-OV-3 ovarian. Description: NCI-60 cell line screen, 48 h.
`Cc1ccc(S(=O)(=O)N=Nc2c(O)[nH]c3cc(O)c(C(=O)O)cc23)cc1` returned a TGI above 100 µM.
On to `O=C(O)c1ccc(CN2CCC(CN[C@@H]3C[C@H]3c3ccccc3)CC2)cc1`, for which the GI50 is above 100 µM and the TGI was above 100 µM.
Turning to `O=C1C=CC(=O)C2C1C1(Cl)C(Cl)=C(Cl)C2(Cl)C1(Cl)Cl` (centres undefined), the GI50 is 7.85 µM and the TGI is 21.1 µM.
Regarding `C=CC(=O)N1CCC(Oc2cc3c(Nc4ccc(Cl)c(Cl)c4F)ncnc3cc2OC)CC1`, the GI50 was below 0.001 µM.
With `Cc1cc(Cl)ccc1OCC(=O)Nc1nc2c(Cl)cccc2s1`, the GI50 was 96.2 µM and the TGI is above 100 µM.
`CNC(=O)OCc1c(COC(=O)NC)c(-c2ccc(-c3ccccc3)cc2)n(C)c1C`: the TGI stood at 11.8 µM.
On to `COc1cccc2c1C(=N)c1c(O)c3c(c(O)c1C2=O)C[C@@](O)(C(C)=O)C[C@@H]3O[C@H]1C[C@H](N)[C@H](O)[C@H](C)O1`, for which the GI50 is 0.288 µM and the TGI stood at 2.6 µM.
Taken in the same sequence, the figures for `Cc1cn(-c2cc(NC(=O)c3cccc(C#Cc4cccc5[nH]nc(N)c45)c3)cc(C(F)(F)F)c2)cn1` were 22.2 µM and above 100 µM.
In turn, `CN(C)CCC(=O)N1C/C(=C\c2ccc(Cl)c(Cl)c2)C(=O)/C(=C/c2ccc(Cl)c(Cl)c2)C1` gave a TGI of 3.76 µM.
Compound `CN(C)Cc1cc(C(F)(F)F)ccc1C(O)(c1ccccc1)c1ccccc1` had a TGI of 56.5 µM.
The same measure, in the same setting: the result for `O=C(NC(=O)c1c(F)cccc1F)Nc1cccc(Oc2ncc(Cl)cn2)c1` reads above 93.3 µM.

A further assay relates to HT29 colon. Description: NCI-60 cell line screen, 48 h.
Take `Cc1ccc(S(=O)(=O)N=Nc2c(O)[nH]c3cc(O)c(C(=O)O)cc23)cc1`: the TGI was above 100 µM.
Consider `O=C(O)c1ccc(CN2CCC(CN[C@@H]3C[C@H]3c3ccccc3)CC2)cc1`, for which the GI50 was above 100 µM and the TGI was above 100 µM.
On to `O=C1C=CC(=O)C2C1C1(Cl)C(Cl)=C(Cl)C2(Cl)C1(Cl)Cl` (centres undefined), for which the GI50 was 7.54 µM and the TGI is 23.9 µM.
For the compound `C=CC(=O)N1CCC(Oc2cc3c(Nc4ccc(Cl)c(Cl)c4F)ncnc3cc2OC)CC1`, the GI50 was 1.71 µM and 1.52 µM; the TGI is 13.7 µM and > 9.34 µM.
`Cc1cc(Cl)ccc1OCC(=O)Nc1nc2c(Cl)cccc2s1`: the GI50 was above 100 µM and the TGI is above 100 µM.
Compound `CNC(=O)OCc1c(COC(=O)NC)c(-c2ccc(-c3ccccc3)cc2)n(C)c1C` registered a TGI of 13.9 µM.
On to `COc1cccc2c1C(=N)c1c(O)c3c(c(O)c1C2=O)C[C@@](O)(C(C)=O)C[C@@H]3O[C@H]1C[C@H](N)[C@H](O)[C@H](C)O1`, for which the GI50 is 0.316 µM and the TGI turned out to be 2.09 µM.
The like results for `Cc1cn(-c2cc(NC(=O)c3cccc(C#Cc4cccc5[nH]nc(N)c45)c3)cc(C(F)(F)F)c2)cn1` were, in that order, 2.55 µM and 17.7 µM.
The compound `CN(C)CCC(=O)N1C/C(=C\c2ccc(Cl)c(Cl)c2)C(=O)/C(=C/c2ccc(Cl)c(Cl)c2)C1` had a TGI of 0.495 µM.
The same measure, in the same setting: for `CN(C)Cc1cc(C(F)(F)F)ccc1C(O)(c1ccccc1)c1ccccc1` the value was 21.6 µM; for `O=C(NC(=O)c1c(F)cccc1F)Nc1cccc(Oc2ncc(Cl)cn2)c1`, above 46.4 µM.

For the origin of these results see PubChem BioAssay (NCI).
